Measured values as given in US20160185774A1, “Anti-Infective Compounds” (priority 2013, published 2016).
≈ marks a conversion by molar mass, not a printed value.

tested on: M. tuberculosis; experiment: microbe, parasite or virus in culture; assay type: cell-based; conditions: Mycobacterium tuberculosis, 120 h; read-out: QUM (MIC80)

Row | Structure (SMILES) | MIC80 [µM]
1 | CCc1nc2c(C(F)(F)F)cccn2c1C(=O)NCc1ccc(N2CCC(c3ccc(F)cc3)CC2)cc1 [Compound 78] | 1 to 20 (≈ 0.525 to 10.5 µg/mL)
2 | CCc1nc2ccc(Br)cn2c1C(=O)NCc1ccc(N2CCC(c3ccc(C)cc3)CC2)cc1 [Compound 79] | < 1
3 | CCc1nc2ccc(C(F)(F)F)cn2c1C(=O)NCc1ccc(N2CCN(c3ccccc3)CC2)cc1 [Compound 80] | < 1
4 | CCc1nc2cc(C(F)(F)F)ccn2c1C(=O)NCc1ccc(N2CCN(c3ccccc3)CC2)cc1 [Compound 81] | < 1
5 | CCc1nc2cc(F)ccn2c1C(=O)NCc1ccc(N2CCN(c3ccc(F)cc3)CC2)cc1 [Compound 82] | < 1
6 | CCc1nc2c(C)cccn2c1C(=O)NCc1ccc(N2CCN(c3ccc(F)cc3)CC2)cc1 [Compound 83] | < 1
7 | CCc1nc2c(C(F)(F)F)cccn2c1C(=O)NCc1ccc(N2CCN(c3ccccc3)CC2)cc1 [Compound 84] | 1 to 20 (≈ 0.508 to 10.2 µg/mL)
8 | CCc1nc2c(Cl)cccn2c1C(=O)NCc1ccc(N2CCN(c3ccc(F)cc3)CC2)cc1 [Compound 85] | < 1
9 | CCc1nc2cc(C(F)(F)F)ccn2c1C(=O)NCc1ccc(N2CCN(c3ccc(F)cc3)CC2)cc1 [Compound 86] | < 1
10 | CCc1nc2ccc(C(F)(F)F)cn2c1C(=O)NCc1ccc(N2CCN(c3ccc(F)cc3)CC2)cc1 [Compound 87] | < 1
11 | CCc1nc2c(C(F)(F)F)cccn2c1C(=O)NCc1ccc(N2CCC(c3ccc(C(F)(F)F)cc3)CC2)cc1 [Compound 88] | 1 to 20 (≈ 0.575 to 11.5 µg/mL)
12 | CCc1nc2c(Br)cccn2c1C(=O)NCc1ccc(N2CCC(c3ccc(OC)cc3)CC2)cc1 [Compound 89] | 1 to 20 (≈ 0.547 to 10.9 µg/mL)
13 | CCc1nc2cc(F)ccn2c1C(=O)NCc1ccc(N2CCN(c3ccc(Cl)cc3)CC2)cc1 [Compound 90] | < 1
14 | CCc1nc2cc(OC)ccn2c1C(=O)NCc1ccc(N2CCC(c3ccc(OC)cc3)CC2)cc1 [Compound 92] | < 1
15 | CCc1nc2cc(F)ccn2c1C(=O)NCc1ccc(N2CCN(c3ccc(C)cc3)CC2)cc1 [Compound 93] | < 1
16 | CCc1nc2c(Br)cccn2c1C(=O)NCc1ccc(N2CCN(c3ccc(OC(F)(F)F)cc3)CC2)cc1 [Compound 94] | < 1
17 | CCc1nc2c(Br)cccn2c1C(=O)NCc1ccc(N2CCN(c3ccc(OC)cc3)CC2)cc1 [Compound 95] | < 1
18 | CCc1nc2cc(C(F)(F)F)ccn2c1C(=O)NCc1ccc(N2CCN(c3ccc(OC)cc3)CC2)cc1 [Compound 96] | < 1
19 | CCc1nc2c(Br)cccn2c1C(=O)NCc1ccc(N2CCN(c3ccc(C)cc3)CC2)cc1 [Compound 97] | < 1
20 | CCc1nc2c(Cl)cccn2c1C(=O)NCc1ccc(N2CCC(c3ccc(OC)cc3)CC2)cc1 [Compound 98] | < 1
21 | CCc1nc2c(C(F)(F)F)cccn2c1C(=O)NCc1ccc(N2CCN(c3ccc(C)cc3)CC2)cc1 [Compound 99] | 1 to 20 (≈ 0.522 to 10.4 µg/mL)
22 | CCc1nc2ccc(OC)cn2c1C(=O)NCc1ccc(N2CCN(c3ccc(C)cc3)CC2)cc1 [Compound 100] | < 1
23 | CCc1nc2ccc(Br)cn2c1C(=O)NCc1ccc(N2CCN(c3ccc(C)cc3)CC2)cc1 [Compound 101] | < 1
24 | CCc1nc2ccc(C(F)(F)F)cn2c1C(=O)NCc1ccc(N2CCN(c3ccc(C)cc3)CC2)cc1 [Compound 102] | < 1
25 | CCc1nc2c(OC)cccn2c1C(=O)NCc1ccc(N2CCN(c3ccc(Cl)cc3)CC2)cc1 [Compound 103] | 1 to 20 (≈ 0.504 to 10.1 µg/mL)

Row | Structure (SMILES) | MIC80 [µM]
26 | CCc1nc2c(OC)cccn2c1C(=O)NCc1ccc(N2CCN(c3ccc(C)cc3)CC2)cc1 [Compound 104] | 1 to 20 (≈ 0.484 to 9.67 µg/mL)
27 | CCc1nc2c(C(F)(F)F)cccn2c1C(=O)NCc1ccc(N2CCN(c3ccc(OC)cc3)CC2)cc1 [Compound 105] | 1 to 20 (≈ 0.538 to 10.8 µg/mL)
28 | CCc1nc2cc(C(F)(F)F)ccn2c1C(=O)NCc1ccc(N2CCN(c3ccc(C)cc3)CC2)cc1 [Compound 106] | < 1
29 | CCc1nc2ccc(OC)cn2c1C(=O)NCc1ccc(N2CCN(c3ccc(OC(F)(F)F)cc3)CC2)cc1 [Compound 107] | < 1
30 | CCc1nc2cc(OC)ccn2c1C(=O)NCc1ccc(N2CCN(c3ccc(C)cc3)CC2)cc1 [Compound 108] | < 1
31 | CCc1nc2ccc(C(F)(F)F)cn2c1C(=O)NCc1ccc(N2CCN(c3ccc(OC)cc3)CC2)cc1 [Compound 109] | < 1
32 | CCc1nc2cc(OC)ccn2c1C(=O)NCc1ccc(N2CCN(c3ccc(OC)cc3)CC2)cc1 [Compound 110] | < 1
33 | CCc1nc2ccc(OC)cn2c1C(=O)NCc1ccc(N2CCN(c3ccc(OC)cc3)CC2)cc1 [Compound 111] | < 1
34 | CCc1nc2c(C(F)(F)F)cccn2c1C(=O)NCc1ccc(N2CCC(c3ccccc3)CC2)cc1 [Compound 112] | 1 to 20 (≈ 0.507 to 10.1 µg/mL)
35 | CCc1nc2cc(Br)ccn2c1C(=O)NCc1ccc(N2CCC(c3ccccc3)CC2)cc1 [Compound 113] | < 1
36 | CCc1nc2ccc(F)cn2c1C(=O)NCc1ccc(N2CCC(c3ccc(C)cc3)CC2)cc1 [Compound 115] | < 1
37 | CCc1nc2cc(F)ccn2c1C(=O)NCc1ccc(N2CCN(c3ccc(OC(F)(F)F)cc3)CC2)cc1 [Compound 116] | < 1
38 | CCc1nc2c(OC)cccn2c1C(=O)NCc1ccc(N2CCC(c3ccc(OC(F)(F)F)cc3)CC2)cc1 [Compound 117] | 1 to 20 (≈ 0.553 to 11.1 µg/mL)
39 | CCc1nc2ccc(OC)cn2c1C(=O)NCc1ccc(N2CCC(c3ccccc3)CC2)cc1 [Compound 118] | < 1
40 | CCc1nc2c(Cl)cccn2c1C(=O)NCc1ccc(N2CCC(c3ccc(C(F)(F)F)cc3)CC2)cc1 [Compound 119] | < 1
41 | CCc1nc2ccc(C(F)(F)F)cn2c1C(=O)NCc1ccc(N2CCC(c3ccc(OC)cc3)CC2)cc1 [Compound 120] | < 1
42 | CCc1nc2ccc(C(F)(F)F)cn2c1C(=O)NCc1ccc(N2CCN(c3ccc(Cl)cc3)CC2)cc1 [Compound 121] | < 1
43 | CCc1nc2ccc(C)cn2c1C(=O)NCc1ccc(N2CCC(c3ccc(Cl)cc3)CC2)cc1 [Compound 122] | < 1
44 | CCc1nc2ccc(OC)cn2c1C(=O)NCc1ccc(N2CCC(c3ccc(OC)cc3)CC2)cc1 [Compound 123] | < 1
45 | CCc1nc2cc(C(F)(F)F)ccn2c1C(=O)NCc1ccc(N2CCC(c3ccc(OC)cc3)CC2)cc1 [Compound 124] | < 1
46 | CCc1nc2c(OC)cccn2c1C(=O)NCc1ccc(N2CCC(c3ccc(C(F)(F)F)cc3)CC2)cc1 [Compound 125] | 1 to 20 (≈ 0.537 to 10.7 µg/mL)
47 | CCc1nc2ccc(OC)cn2c1C(=O)NCc1ccc(N2CCC(c3ccc(C(F)(F)F)cc3)CC2)cc1 [Compound 126] | < 1
48 | CCc1nc2ccc(OC)cn2c1C(=O)NCc1ccc(N2CCC(c3ccc(C)cc3)CC2)cc1 [Compound 127] | < 1
49 | CCc1nc2ccc(OC)cn2c1C(=O)NCc1ccc(N2CCN(c3ccc(Cl)cc3)CC2)cc1 [Compound 128] | < 1
50 | CCc1nc2c(OC)cccn2c1C(=O)NCc1ccc(N2CCN(c3ccc(C(F)(F)F)cc3)CC2)cc1 [Compound 129] | 1 to 20 (≈ 0.538 to 10.8 µg/mL)

Row | Structure (SMILES) | MIC80 [µM]
51 | CCc1nc2ccc(C(F)(F)F)cn2c1C(=O)NCc1ccc(N2CCN(c3ccc(C(F)(F)F)cc3)CC2)cc1 [Compound 130] | < 1
52 | CCc1nc2cc(Br)ccn2c1C(=O)NCc1ccc(N2CCC(c3ccc(C(F)(F)F)cc3)CC2)cc1 [Compound 132] | < 1
53 | CCc1nc2cc(Br)ccn2c1C(=O)NCc1ccc(N2CCC(c3ccc(F)cc3)CC2)cc1 [Compound 133] | < 1
54 | CCc1nc2cc(Br)ccn2c1C(=O)NCc1ccc(N2CCC(c3ccc(Cl)cc3)CC2)cc1 [Compound 134] | < 1
55 | CCc1nc2cc(Br)ccn2c1C(=O)NCc1ccc(N2CCN(c3ccc(Cl)cc3)CC2)cc1 [Compound 135] | < 1
56 | CCc1nc2ccc(Br)cn2c1C(=O)NCc1ccc(N2CCC(c3ccc(C(F)(F)F)cc3)CC2)cc1 [Compound 136] | < 1
57 | CCc1nc2cc(F)ccn2c1C(=O)NCc1ccc(N2CCC(c3ccc(F)cc3)CC2)cc1 [Compound 137] | < 1
58 | CCc1nc2ccccn2c1C(=O)NCc1ccc(N2CCC(c3ccc(Cl)cc3)CC2)cc1 [Compound 139] | < 1
59 | CCc1nc2ccc(C)cn2c1C(=O)NCc1ccc(N2CCC(c3ccc(C(F)(F)F)cc3)CC2)cc1 [Compound 140] | < 1
60 | CCc1nc2cc(C)ccn2c1C(=O)NCc1ccc(N2CCN(c3ccc(C)cc3)CC2)cc1 [Compound 141] | < 1
61 | CCc1nc2c(Br)cccn2c1C(=O)NCc1ccc(N2CCC(c3ccc(C(F)(F)F)cc3)CC2)cc1 [Compound 143] | 1 to 20 (≈ 0.585 to 11.7 µg/mL)
62 | CCc1nc2c(C)cccn2c1C(=O)NCc1ccc(N2CCC(c3ccc(C)cc3)CC2)cc1 [Compound 144] | < 1
63 | CCc1nc2c(C)cccn2c1C(=O)NCc1ccc(N2CCC(c3ccc(C(F)(F)F)cc3)CC2)cc1 [Compound 145] | < 1
64 | CCc1nc2ccc(C(F)(F)F)cn2c1C(=O)NCc1ccc(N2CCC(c3ccc(C(F)(F)F)cc3)CC2)cc1 [Compound 146] | < 1
65 | CCc1nc2c(Cl)cccn2c1C(=O)NCc1ccc(N2CCC(c3ccc(C)cc3)CC2)cc1 [Compound 147] | < 1
66 | CCc1nc2c(F)cccn2c1C(=O)NCc1ccc(N2CCC(c3ccc(F)cc3)CC2)cc1 [Compound 148] | < 1
67 | CCc1nc2ccc(F)cn2c1C(=O)NCc1ccc(N2CCN(c3ccc(OC)cc3)CC2)cc1 [Compound 149] | < 1
68 | CCc1nc2ccc(F)cn2c1C(=O)NCc1ccc(N2CCC(c3ccc(OC)cc3)CC2)cc1 [Compound 150] | < 1
69 | CCc1nc2c(OC)cccn2c1C(=O)NCc1ccc(N2CCC(c3ccc(F)cc3)CC2)cc1 [Compound 151] | 1 to 20 (≈ 0.487 to 9.73 µg/mL)
70 | CCc1nc2c(OC)cccn2c1C(=O)NCc1ccc(N2CCC(c3ccc(OC)cc3)CC2)cc1 [Compound 152] | 1 to 20 (≈ 0.499 to 9.97 µg/mL)
71 | CCc1nc2c(C(F)(F)F)cccn2c1C(=O)NCc1ccc(N2CCC(c3ccc(OC(F)(F)F)cc3)CC2)cc1 [Compound 154] | 1 to 20 (≈ 0.591 to 11.8 µg/mL)
72 | CCc1nc2cc(C)ccn2c1C(=O)NCc1ccc(N2CCC(c3ccc(OC)cc3)CC2)cc1 [Compound 155] | < 1
73 | CCc1nc2ccc(Br)cn2c1C(=O)NCc1ccc(N2CCN(c3ccc(C(F)(F)F)cc3)CC2)cc1 [Compound 156] | < 1
74 | CCc1nc2ccccn2c1C(=O)NCc1ccc(N2CCC(c3ccc(C)cc3)CC2)cc1 [Compound 157] | < 1
